{"source": "patent US10815257B2", "about": "“Polymorph of sodium neridronate and preparation process thereof” (ABIOGEN PHARMA S.P.A., priority 2018, dated 2020)", "format_in_all_cases": "physicochemical", "key": {"[1]": {"test": "Hygroscopicity study by Dynamic Vapor Sorption (DVS)", "settings": "25° C.; for mass variation (humidity absorption, DVS): 90% relative humidity (RH); for behavior in DVS hygroscopicity study: RH 0 to 90%", "procedure": "The Hygroscopicity study was carried out on samples of polymorphic crystalline forms F, B and E of sodium neridronate by measuring the humidity absorption kinetics, in a range of relative humidity (RH %) comprised between 0 and 90%, at the temperature of 25° C."}, "[2]": {"test": "Stability study at 40° C. and 75% RH monitored by XRD", "settings": "for stability of crystalline form over time (XRD): eight weeks observation", "procedure": "The stability study was carried out on samples of crystalline polymorphic forms B, E, and the hemihydrate form F of sodium neridronate, stored in an environment characterized by 75% relative humidity (RH) and a temperature of 40° C.\nThe observation of the sample stability lasted for a period of eight weeks, during which once a week, […], an aliquot was taken from each sample and subjected to XRD analysis to observe any possible crystalline changes of the various samples over time."}, "[3]": {"test": "Thermodynamic solubility test", "settings": "buffer solution pH 7.4, 37° C., stirring about 500 rpm", "procedure": "For this purpose, a dissolution test was carried out in a buffer solution at pH 7.4. The thermodynamic solubility evaluation was performed leaving the sample in the buffer solution, under magnetic stirring at about 500 rpm, for a period of 24 hours, at a temperature of 37° C."}}}
{"compound": "NCCCCCC(O)(P(=O)([O-])O)P(=O)(O)O.[Na+]", "note": "[form B, sodium neridronate]", "values": [{"measurement": "mass variation (humidity absorption, DVS)", "setting": "[1]", "value": "about 5%"}, {"measurement": "behavior in DVS hygroscopicity study", "setting": "[1]", "value": "hydrophilic behavior"}, {"measurement": "onset of conversion into crystalline hemihydrate form F (XRD)", "setting": "[2]", "value": "begin to convert into the crystalline hemihydrate form F already after a week"}, {"measurement": "extent of conversion into form F at the end of the observation period (XRD)", "setting": "[2]; eight weeks", "value": "only partially converted"}, {"measurement": "stability of crystalline form over time (XRD)", "setting": "[2]", "value": "not stable over time"}, {"measurement": "thermodynamic solubility", "setting": "[3]; 24 hours", "value": 92.97, "unit": "mg/mL"}]}
{"compound": "NCCCCCC(O)(P(=O)([O-])O)P(=O)(O)O.[Na+]", "note": "[form E, sodium neridronate]", "values": [{"measurement": "mass variation (humidity absorption, DVS)", "setting": "[1]", "value": "about 1%"}, {"measurement": "behavior in DVS hygroscopicity study", "setting": "[1]", "value": "hydrophilic behavior"}, {"measurement": "onset of conversion into crystalline hemihydrate form F (XRD)", "setting": "[2]", "value": "begin to convert into the crystalline hemihydrate form F already after a week"}, {"measurement": "stability of crystalline form over time (XRD)", "setting": "[2]", "value": "not stable over time"}, {"measurement": "extent of conversion into form F after seven weeks (XRD)", "setting": "[2]; seven weeks", "value": "completely converted into the crystalline hemihydrate form F"}]}
{"compound": "NCCCCCC(O)(P(=O)([O-])O)P(=O)(O)O.[Na+]", "note": "[form F, sodium neridronate]", "values": [{"measurement": "mass variation (humidity absorption, DVS)", "setting": "[1]", "value": "without any appreciable mass variation"}, {"measurement": "behavior in DVS hygroscopicity study", "setting": "[1]", "value": "hydrophobic behavior"}, {"measurement": "stability of crystalline form over time (XRD)", "setting": "[2]", "value": "stable even after eight weeks conditioning"}, {"measurement": "solubility thermodynamic at 24 h", "setting": "[3]; buffer solution, 37 °C, pH 7.4, aqueous buffer, thermodynamic from solid", "value": 93.7, "unit": "mg/mL"}]}
